Each compound was assayed on Jurkat (assay: Inhibition of AP-1 and NF-kB-mediated transcriptional activation in Jurkat cells). Settings: Homo sapiens, Jurkat.
Type: functional, cell-based, Homo sapiens

SMILES | IC50 [nM]
CCOC(=O)c1cnc(NN2C(=O)C=C(C)C2=O)nc1-c1cccs1 | 140
CCOC(=O)c1cnc(N(C)N2C(=O)C=C(C)C2=O)nc1-c1nccs1 | 1700
CCCC(=O)c1cnc(NN2C(=O)C=C(C)C2=O)nc1CC | 450
CCc1nc(NN2C(=O)C=C(C)C2=O)ncc1-c1nc(C)co1 | 830
CCc1nc(NN2C(=O)C=C(C)C2=O)ncc1-c1nnc(C)o1 | 10000
CCOC(=O)c1cnc(NN2C(=O)C=C(C)C2=O)nc1-c1ccsc1 | 200
CC1=CC(=O)N(Nc2ncc(C(=O)N(C)C)c(C(F)(F)F)n2)C1=O | 30000
CCOC(=O)c1cnc(N(C(=O)NC)N2C(=O)C=C(C)C2=O)nc1C(F)(F)F | 590
CCc1nc(NN2C(=O)C=C(C)C2=O)ncc1-c1nnn(C)n1 | 10000
CCOC(=O)c1cnc(N(C)N2C(=O)C=C(C)C2=O)nc1-c1ccc(C)s1 | 350
CCOC(=O)c1cnc(N)nc1C(F)(F)F | 30000
CC1=CC(=O)N(Nc2ncc(C(=O)c3ccccc3)c(C(F)(F)F)n2)C1=O | 98
CC(=O)c1cnc(NN2C(=O)C=C(C)C2=O)nc1C | 7700
CCOC(=O)c1cnc(NN2C(=O)C=C(C)C2=O)nc1C | 1900
CCOC(=O)c1cnc(NN2C(=O)C=C(C)C2=O)nc1-c1ccc(Cl)s1 | 520
CCOC(=O)c1cnc(NN2C(=O)C=C(c3ccccc3)C2=O)nc1C(F)(F)F | 3700
CC1=CC(=O)N(Nc2ncc(C(=O)O)c(C(F)(F)F)n2)C1=O | 30000
CCOC(=O)c1cnc(NN2C(=O)C=C(C)C2=O)nc1-c1cc2ccccc2s1 | 800
CC1=CC(=O)N(Nc2ncc(-c3nc(C)co3)c(-c3cccs3)n2)C1=O | 760
CCOC(=O)c1cnc(N(Cc2ccccc2)N2C(=O)C=C(C)C2=O)nc1C(F)(F)F | 450
CCc1nc(N(C)N2C(=O)C=C(C)C2=O)ncc1C(=O)c1ccccc1 | 410
CCOC(=O)c1cnc(N(C)N2C(=O)C=C(C)C2=O)nc1C(F)(F)C(F)(F)F | 350
CCOC(=O)c1cnc(N(C(=O)c2ccccc2)N2C(=O)C=C(C)C2=O)nc1C(F)(F)F | 830
CCOC(=O)c1cnc(NN2C(=O)C=C(C)C2=O)nc1 | 13000
CCOC(=O)c1cnc(NN2C(=O)C=C(C)C2=O)nc1C(F)(F)C(F)(F)F | 200
CCc1nc(NN2C(=O)C=C(C)C2=O)ncc1C(=O)c1ccccc1 | 650
CCOC(=O)c1cnc(NN2C(=O)C=C(C)C2=O)nc1CC | 400
CC1=CC(=O)N(Nc2ncc(C(=O)OC(C)(C)C)c(-c3cccs3)n2)C1=O | 50

SMILES | IC50 [nM]
CCc1nc(NN2C(=O)C=C(C)C2=O)ncc1-c1ncc(-c2ccccc2)o1 | 2800
CCOC(=O)c1cnc(NN2C(=O)C=C(C)C2=O)nc1-c1ccccc1 | 1200
CCOC(=O)c1cnc(N(C(=O)OCC)N2C(=O)C=C(C)C2=O)nc1C(F)(F)F | 380
CCc1nc(NN2C(=O)C=C(C)C2=O)ncc1C(=O)OC1CC1 | 120
CCc1nc(NN2C(=O)C=C(C)C2=O)ncc1-c1cc(C)no1 | 10000
CCOC(=O)c1cnc(N(C)N2C(=O)C=C(C)C2=O)nc1CC | 35
CCOC(=O)c1cnc(N(C)N2C(=O)C=C(C)C2=O)nc1-c1ccsc1 | 120
CCc1nc(NN2C(=O)C=C(C)C2=O)ncc1CO | 4900
CCc1nc(N(C)N2C(=O)C=C(C)C2=O)ncc1COC | 630
CCOC(=O)c1cnc(NN2C(=O)C=C(C)C2=O)nc1-c1ccc(C)s1 | 45
CC1=CC(=O)N(Nc2ncc(C(N)=O)c(C(F)(F)F)n2)C1=O | 30000
CCOC(=O)c1cnc(NN2C(=O)C=C(C)C2=O)nc1COC | 6000
CCOC(=O)c1cnc(NN2C(=O)C=C(C)C2=O)nc1C1CC1 | 1500
CC1=CC(=O)N(Nc2ncc(C(=O)OC(C)(C)C)c(C(F)(F)F)n2)C1=O | 210
CCOC(=O)c1cnc(N(C)N2C(=O)C=C(C)C2=O)nc1-c1cc2ccccc2s1 | 130
CCOC(=O)c1cnc(NN2C(=O)CCC2=O)nc1C(F)(F)F | 1600
CCOC(=O)c1cnc(N(C)N2C(=O)C=C(C)C2=O)nc1C(F)(F)F | 300
CCOC(=O)c1cnc(N(C(C)=O)N2C(=O)C=C(C)C2=O)nc1C(F)(F)F | 410
CCOC(=O)c1cnc(NN2C(=O)C=C(C)C2=O)nc1Cc1ccccc1 | 3800
CCOC(=O)c1cnc(NN2C(=O)C=C(C)C2=O)nc1C(F)(F)F | 2000
CCOC(=O)c1cnc(NN2C(=O)C=C(C)C2=O)nc1-c1nccs1 | 2200
CCOC(=O)c1cnc(NN2C(=O)C=C(C)C2=O)nc1-c1ccco1 | 1000
CCc1nc(NN2C(=O)C=C(C)C2=O)ncc1C#N | 1100
CCOC(=O)c1cnc(N(C)N2C(=O)C=C(C)C2=O)nc1-c1cccs1 | 94
CCCc1nc(N(C(C)=O)N2C(=O)C=C(C)C2=O)ncc1C(=O)OCC | 430
CCOC(=O)c1cnc(NN2C(=O)C(C)=C(C)C2=O)nc1C(F)(F)F | 3900
CC(=O)c1cnc(NN2C(=O)C=C(C)C2=O)nc1C(F)(F)F | 4400

Same assay, conditions: jurkat

SMILES | IC50 [nM]
CCOC(=O)c1cnc(N(C)N2C(=O)C=C(C)C2=O)nc1C(F)(F)C(F)(F)F | 450

Reference: ChEMBL document CHEMBL1135326, “Structure-activity relationship studies of ethyl 2-[(3-methyl-2,5-dioxo(3-pyrrolinyl))amino]-4-(trifluoromethyl)pyrimidine-5-carboxylate: an inhibitor of AP-1 and NF-kappaB mediated gene expression” (Bioorg Med Chem Lett, 2002)
